Data published in ChEMBL document CHEMBL1201862, “PubChem BioAssay data set” (2004).
“And” between values parts separate entries of the source, which are not always exact repeats. Identical values can stand only once.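 Method: 48-hour compound exposure of cells in 96-well plates, five concentrations, linear interpolation of endpoints. GI50: concentration for 50% inhibition of growth.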 The source made the active and inactive calls. No stated cut-off is given here; in the data, active = GI50 up to about 1.1 µM and inactive = higher.

Key:
Test in all cases: NCI anticancer screen, dose series, 48 h
SK-MEL-5 = system: SK-MEL-5
MDA-N = system: MDA-N
OVCAR-3 = system: OVCAR-3
SK-MEL-2 = system: SK-MEL-2
U-251 = system: U-251
Malme-3M = system: Malme-3M
UO-31 = system: UO-31
KM12 = system: KM12
NCI-H522 = system: NCI-H522
TK-10 = system: TK-10
A549 = system: A549
OVCAR-8 = system: OVCAR-8
HOP-62 = system: HOP-62
HL-60 = system: HL-60
SK-MEL-28 = system: SK-MEL-28
OVCAR-5 = system: OVCAR-5
M14 = system: M14
COLO 205 = system: COLO 205
RPMI-8226 = system: RPMI-8226
HCC 2998 = system: HCC 2998

Row | SMILES | GI50 (SK-MEL-5) | GI50 (MDA-N) | GI50 (OVCAR-3) | GI50 (SK-MEL-2) | GI50 (U-251) | GI50 (Malme-3M) | GI50 (UO-31) | GI50 (KM12) | GI50 (NCI-H522) | GI50 (TK-10) | GI50 (A549) | GI50 (OVCAR-8) | GI50 (HOP-62) | GI50 (HL-60) | GI50 (SK-MEL-28) | GI50 (OVCAR-5) | GI50 (M14) | GI50 (COLO 205) | GI50 (RPMI-8226) | GI50 (HCC 2998)
1 | Cc1cccc(N2C(=O)C3ON(C(C(N)=O)c4ccccc4)C(c4c5ccccc5c(Cl)c5ccccc45)C3C2=O)c1C (stereo not given) | 7.03 µM (inactive) | 3.3 µM (inactive) | 8.43 µM (inactive) | 9.23 µM (inactive) | 8.02 µM (inactive) | 11.4 µM (inactive) | 16.4 µM (inactive) | 1.85 µM (inactive) | 10.5 µM (inactive) | 11.8 µM (inactive) | 14.3 µM (inactive) | 9.84 µM (inactive) | 10.6 µM (inactive) | 4.12 µM (inactive) | 13 µM (inactive) | 10.3 µM (inactive) | 7.93 µM (inactive) | 9.42 µM (inactive) | – | –
2 | COc1ccc(/C=C2\CCS(=O)(=O)c3ccccc3C2=O)cc1OC | – | 45.4 µM (inactive) | 22.7 µM (inactive) | 35.4 µM (inactive) | 31.9 µM (inactive) | – | 31 µM (inactive) | 28.4 µM (inactive) | – | 26.9 µM (inactive) | > 100 µM (inactive) | 19.1 µM (inactive) | 38.5 µM (inactive) | 17.4 µM (inactive) | 53.1 µM (inactive) | 68.1 µM (inactive) | 38.9 µM (inactive) | 48.8 µM (inactive) | 35.2 µM (inactive) | 14.9 µM (inactive)
3 | NC1=NC(=O)C2(NN1)c1ccccc1-c1ccccc12 | > 10 µM (inactive) | > 10 µM (inactive) | > 10 µM (inactive) | > 10 µM (inactive) | 7.62 µM (inactive) | > 10 µM (inactive) | > 10 µM (inactive) | > 10 µM (inactive) | – | > 10 µM (inactive) | > 10 µM (inactive) | > 10 µM (inactive) | > 10 µM (inactive) | 8.99 µM (inactive) | > 10 µM (inactive) | > 10 µM (inactive) | > 10 µM (inactive) | > 10 µM (inactive) | > 10 µM (inactive) | > 10 µM (inactive)
4 | C[C@@]1(Br)C[C@@](C)(Cl)[C@@H](Br)CC1/C=C/Cl (stereo not given in full) | 13.6 µM (inactive) | 15.8 µM (inactive) | 15.1 µM (inactive) | 16.7 µM (inactive) | 19.3 µM (inactive) | < 0.01 µM (active) | 18.5 µM (inactive) | 16.1 µM (inactive) | – | 18.4 µM (inactive) | 17.7 µM (inactive) | 16 µM (inactive) | 17 µM (inactive) | – | 21.9 µM (inactive) | 15.1 µM (inactive) | 16.6 µM (inactive) | 15.6 µM (inactive) | 16 µM (inactive) | 31.6 µM (inactive)
5 | O=C1CC(n2cccc2)c2cc(Br)sc21 (stereo not given) | > 100 µM (inactive) | 55.6 µM (inactive) | > 100 µM (inactive) | > 100 µM (inactive) | > 100 µM (inactive) | > 100 µM (inactive) | > 100 µM (inactive) | > 100 µM (inactive) | 21.6 µM (inactive) | > 100 µM (inactive) | > 100 µM (inactive) | 36.9 µM (inactive) | > 100 µM (inactive) | 14.5 µM (inactive) | > 100 µM (inactive) | > 100 µM (inactive) | > 100 µM (inactive) | > 100 µM (inactive) | 26.4 µM (inactive) | –
6 | COc1ccc(OCc2nc3cc(C(F)(F)F)ccc3nc2-c2ccccc2)cc1 | > 100 µM (inactive) | > 100 µM (inactive) | > 100 µM (inactive) | > 100 µM (inactive) | > 100 µM (inactive) | > 100 µM (inactive) | > 100 µM (inactive) | > 100 µM (inactive) | – | > 100 µM (inactive) | > 100 µM (inactive) | > 100 µM (inactive) | > 100 µM (inactive) | > 100 µM (inactive) | > 100 µM (inactive) | > 100 µM (inactive) | > 100 µM (inactive) | > 100 µM (inactive) | > 100 µM (inactive) | > 100 µM (inactive)
7 | Cc1ccc(S(=O)(=O)n2ccn3c(=O)cc(C)nc23)cc1 | > 10 µM (inactive) | > 10 µM (inactive) | > 10 µM (inactive) | > 10 µM (inactive) | > 10 µM (inactive) | > 10 µM (inactive) | > 10 µM (inactive) | > 10 µM (inactive) | – | > 10 µM (inactive) | > 10 µM (inactive) | > 10 µM (inactive) | > 10 µM (inactive) | > 10 µM (inactive) | > 10 µM (inactive) | > 10 µM (inactive) | > 10 µM (inactive) | > 10 µM (inactive) | > 10 µM (inactive) | –
8 | C1=N\CCOCC/N=C/c2ccccc2OCc2cccc(n2)COc2ccccc2/1 | – | 0.942 µM (active) | 3.51 µM (inactive) | 8.63 µM (inactive) | 6.04 µM (inactive) | 4.53 µM (inactive) | 7.98 µM (inactive) | 7.85 µM (inactive) | 20.3 µM (inactive) | 6.27 µM (inactive) | > 25 µM (inactive) | 6.38 µM (inactive) | 16.5 µM (inactive) | 5.07 µM (inactive) | 8.13 µM (inactive) | 5.26 µM (inactive) | 8.87 µM (inactive) | 13 µM (inactive) | 4.88 µM (inactive) | –
9 | CCOP(=O)(OCC)C(C)(CC)NC(=O)C(C(F)(F)F)C(F)(F)F (stereo not given) | > 100 µM (inactive) | > 100 µM (inactive) | > 100 µM (inactive) | > 100 µM (inactive) | > 100 µM (inactive) | > 100 µM (inactive) | > 100 µM (inactive) and 97.3 µM (inactive) | 49.5 µM (inactive) and 58.2 µM (inactive) | – | 75.9 µM (inactive) | > 100 µM (inactive) | > 100 µM (inactive) | > 100 µM (inactive) | – | > 100 µM (inactive) | > 100 µM (inactive) | > 100 µM (inactive) | > 100 µM (inactive) | 33.3 µM (inactive) and 21.9 µM (inactive) | > 100 µM (inactive)
10 | C=CCCC1CCCCC/C1=N\N(C)C (stereo not given) | > 100 µM (inactive) | > 100 µM (inactive) | > 100 µM (inactive) | > 100 µM (inactive) | > 100 µM (inactive) | – | > 100 µM (inactive) | > 100 µM (inactive) | > 100 µM (inactive) | > 100 µM (inactive) | > 100 µM (inactive) | > 100 µM (inactive) | > 100 µM (inactive) | > 100 µM (inactive) | > 100 µM (inactive) | > 100 µM (inactive) | > 100 µM (inactive) | > 100 µM (inactive) | > 100 µM (inactive) | –
11 | N#CC1Cc2cc3c(cc21)OCO3 (stereo not given) | > 100 µM (inactive) | > 100 µM (inactive) | > 100 µM (inactive) | > 100 µM (inactive) | > 100 µM (inactive) | > 100 µM (inactive) | > 100 µM (inactive) | > 100 µM (inactive) | – | > 100 µM (inactive) | > 100 µM (inactive) | > 100 µM (inactive) | > 100 µM (inactive) | – | > 100 µM (inactive) | > 100 µM (inactive) | > 100 µM (inactive) | > 100 µM (inactive) | – | > 100 µM (inactive)
12 | Nc1ccc(S(=O)(=O)NCCS(=O)(=O)O)cc1 | > 100 µM (inactive) | > 100 µM (inactive) | > 100 µM (inactive) | > 100 µM (inactive) | > 100 µM (inactive) | > 100 µM (inactive) | > 100 µM (inactive) | > 100 µM (inactive) | > 100 µM (inactive) | > 100 µM (inactive) | > 100 µM (inactive) | > 100 µM (inactive) | > 100 µM (inactive) | > 100 µM (inactive) | > 100 µM (inactive) | > 100 µM (inactive) | > 100 µM (inactive) | – | – | –
13 | Cc1[nH]c(-c2ccccc2)c(O)c1C(=O)OC12CC3CC(CC(C3)C1)C2 | 14.6 µM (inactive) | 17.4 µM (inactive) | 14.6 µM (inactive) | 16.7 µM (inactive) | 14.9 µM (inactive) | 14.1 µM (inactive) | 17 µM (inactive) | 5.01 µM (inactive) | 10.1 µM (inactive) | – | 12.1 µM (inactive) | 12.9 µM (inactive) | 14.7 µM (inactive) | 55.6 µM (inactive) | 14.7 µM (inactive) | 13.8 µM (inactive) | 12.4 µM (inactive) | 13.9 µM (inactive) | 37 µM (inactive) | –
14 | N#C/C(C(=O)CCl)=C1\Nc2ccccc2O1 | 1.72 µM (inactive) | 3.71 µM (inactive) | 3.77 µM (inactive) | 3.3 µM (inactive) | 5.36 µM (inactive) | 7.28 µM (inactive) | 3.62 µM (inactive) | 3.89 µM (inactive) | – | 7.01 µM (inactive) | 6.1 µM (inactive) | 2.89 µM (inactive) | 4.89 µM (inactive) | 2.43 µM (inactive) | 1.63 µM (inactive) | – | 3.9 µM (inactive) | 1.94 µM (inactive) | 2.92 µM (inactive) | –
15 | Clc1ccc(OCc2nnc3sc(-c4ccc(-c5ccc(Cl)cc5Cl)o4)nn23)cc1 | > 100 µM (inactive) | > 100 µM (inactive) | > 100 µM (inactive) | 50.6 µM (inactive) | 84.3 µM (inactive) | > 100 µM (inactive) | > 100 µM (inactive) | > 100 µM (inactive) | > 100 µM (inactive) | > 100 µM (inactive) | > 100 µM (inactive) | > 100 µM (inactive) | > 100 µM (inactive) | > 100 µM (inactive) | > 100 µM (inactive) | > 100 µM (inactive) | > 100 µM (inactive) | > 100 µM (inactive) | > 100 µM (inactive) | –
